According to US10851075B2, “Stat3 pathway inhibitors and cancer stem cell inhibitors” (Sumitomo Dainippon Pharma Oncology, Inc., priority 2007, dated 2020):
Entries after “also recorded” stand apart in the source; their conditions may differ. Read-outs that look alike come from different tables or passages of the source.

Columns and labels:
HeLa cells = test: MTT cell viability, HeLa; assay type: cell-based; conditions: Homo sapiens, MTT at 24 hours
Description: (§1) Cell Culture: HeLa, DU145, H1299, DLD1, SW480, A549, MCF7, LN18, HCT116, HepG2, Paca2, Panel, LNcap, FaDu, HT29, and PC3 cells (ATCC, Manassas, Va.) were maintained in Dulbecco's Modified Eagle Medium (DMEM) (Invitrogen, Carlsbad, Calif.) supplemented with 10% fetal bovine serum (MS) (Gemini Bio-Products, West Sacramento, Calif.) and 5% penicillin/streptomycin/amphotercin B (Invitrogen).
(§2) Cell Viability Determination: For 3-(4,5 dimethylthiazol-2-yl)-2,5-diphenyltetrazolium (MTT) (Sigma-Aldrich, St. Louis, Mo.) analysis, cells were plated in 96 well plates at 10,000 cells per well. 24 hours after plating, compound was added to cells at indicated doses. 22 hours following compound addition, MTT was added to each well (0.5 mg/ml, final concentration) and plates were incubated for an additional 2 hours at 37° C., Medium was then aspirated and the formazan product was solubilized in 100 μl of isopropyl alcohol. The absorbance of each well was measured at 570 nm using a microplate reader.
(§3) Identification of compounds that are apoptotic to a broad spectrum of cancer cells in vitro. Cells plated in 96 well plates and treated with indicated compounds were subjected to MTT analysis at 24 hours following compound treatment to determine cell viability.

DU145 cells = test: MTT cell viability, DU145; assay type: cell-based; conditions: Homo sapiens, DU-145, MTT at 24 hours
Description: as §1, §2, §3

[1] = molecular target: T1, Stat3 DNA-binding activity (Homo sapiens, UniProt P40763); test: Stat3 DNA binding assay (EMSA), HeLa nuclear extract; assay type: biochemical; conditions: for inhibition % 1 × MTT IC50: compound at 1 × MTT IC50, untreated Stat3 retarded band set as 100; for inhibition % 3 × MTT IC50: compound at 3 × MTT IC50, untreated Stat3 retarded band set as 100
T1 construct: endogenous in cells; host or cells: HeLa cells (nuclear extract)
Protocol: STAT3 DNA Binding Assay: Electrophoretic mobility shift assay (EMSA) was performed as described by the manufacturer (Li-Cor Biosciences, Lincoln, Nebr.). Briefly, nuclear extracts were made from HeLa cells using the NucBuster Protein Extraction Kit as described by the manufacturer (EMD Biosciences, San Diego, Calif.). 5 μg of nuclear extract was pre-incubated with the indicated dose of indicated compound for 30 minutes prior to a 15-minute incubation with the IR700-labeled consensus Stat3 oligonucleotide. Samples were then electrophoresed on a polyacrylamide gel and directly scanned using the Odyssey infrared imaging system (Li-Cor Biosciences). For the enzyme-linked immunosorbent assay (ELISA), 5 μg of nuclear extract was preincubated with indicated concentration of indicated compound for 30 minutes prior to the addition of biotinylated oligo (5′-Biotin-[…]-3′). Stat3-DNA complexes were then captured on streptavidin coated 96 well plates (Pierce, Rockford, Ill.). Bound complexes were then incubated with Stat3 polyclonal antibody (Santa Cruz Biotechnology, Santa Cruz, Calif.) followed by anti-rabbit HRP conjugated secondary antibody (GE Healthcare, Pittsburgh, Pa.). Bound antibody was then visualized by addition of TMB substrate (Pierce) and absorbance measured at 450 nm.
Inhibition of Stat3 DNA-binding activity. Nuclear extracts from HeLa cells, which contain constitutively activated Stat3 as detected by phoshporylation at the tyrosine 705 residue, were used to perform Stat3 EMSAs to monitor Stat3 DNA binding activity. Nuclear extracts were incubated with indicated compound prior to incubation with IR700-labeled Stat3 consensus oligonucleotide. Binding of Stat3 to the oligonucleotide was monitored by gel electrophoresis and detection using a LiCor Odyssey infrared scanner.
To calculate the inhibition %, the density of the untreated Stat3 retarded band (control) was set as 100 and the inhibition % was the difference between the control and the relative DNA binding activity of the drug-treated samples.

CD44^high FaDu cells = test: Anti-CSC MTT assay, CD44high FaDu cells; assay type: cell-based; conditions: Homo sapiens, 48 h
Protocol: as §2
CD44^high cells were isolated by FACS according to the methods described in Ponti et al., with slight modification. Briefly, after trypsinization and recovery of cells for 30 minutes at 37° C. in growth media, cells were pelleted at 400×g and were resuspended in PBS with 2% FBS and 1 mM EDTA at 1×10^6 cells/mL. Cells were then incubated on ice with a 1:100 dilution of CD44-FITC (BD Biosicences, San Diego, Calif.) for 15 minutes. Alternatively, CD24-PE (BD Bioscences, San Diego, Calif.) (1:100) was utilized for negative selection. After washing three times, cells were resuspended at 2×10^6/mL and passed through a […] mesh before sorting
(§4) In order to test compounds for anti-CSC activity, freshly isolated CSCs (SW480 Hoechst SP cells or CD44^high FaDu cells) were exposed to a dose range (30-0.117 μM) of compound for 48 h before examining cell viability by MTT assay. IC50s were estimated by plotting the percentage of surviving cells. As shown in Table 7 and Table 8, the compounds of present invention can target cancer stem cells.

CD44^low FaDu cells = test: Anti-CSC MTT assay, CD44low FaDu cells; assay type: cell-based; conditions: Homo sapiens, 48 h
H1299 cells = test: MTT cell viability, H1299; assay type: cell-based; conditions: Homo sapiens, NCI-H1299, MTT at 24 hours
Description: as §1, §2, §3

SW480 Hoechst SP cells = test: Anti-CSC MTT assay, SW480 Hoechst side population (SP) cells; assay type: cell-based; conditions: Homo sapiens, 48 h
Protocol: as §2
(§5) Hoechst Side Population: To identify and isolate side population (SP) and non-SP fractions, SW480 cells were removed from the culture dish with trypsin and EDTA, pelleted by centrifugation, washed with phosphate-buffered saline (PBS), and resuspended at 37° C. in Dulbecco's modified Eagle's medium (DMEM) containing 2% FBS and 1 rnM HEPES. The cells were then labeled with Hoechst 33342 (Invitrogen) at a concentration of 5 μg/mL. The labeled cells were incubated for 120 minutes at 37° C., either alone or with 50 μM verapamil (Sigma-Aldrich, St. Louis). After staining, the cells were suspended in Hanks' balanced saline solution (MISS; Invitrogen) containing 2% FBS and 1 mM HEPES, passed a through 40 μm mesh filter, and maintained at 4° C. until flow cytometry analysis. The Hoechst dye was excited at 350 nm, and its fluorescence was measured at two wavelengths using a 450 DF10 (450/20 nm band-pass filter) and a 675LP (675 nm long-pass edge filter) optical filter. The gating on forward and side scatter was not stringent, and only debris was excluded.
as §4

SW480 NSP cells = test: Anti-CSC MTT assay, SW480 non-SP (NSP) cells; assay type: cell-based; conditions: Homo sapiens, 48 h
Protocol: as §2, §5, §4

A549 cells = test: MTT cell viability, A549; assay type: cell-based; conditions: Homo sapiens; A549, Lung; MTT at 24 hours following compound treatment; Table 3
Description: as §1, §2, §3

MCF7 cells = test: MTT cell viability, MCF7; assay type: cell-based; conditions: Homo sapiens; MCF7, Breast; MTT at 24 hours; Table 3
Description: as §1, §2, §3

DLD1 cells = test: MTT cell viability, DLD1; assay type: cell-based; conditions: Homo sapiens, DLD-1; DLD1, Colon; MTT at 24 hours; Table 3
Description: as §1, §2, §3

SW480 cells = test: MTT cell viability, SW480; assay type: cell-based; conditions: Homo sapiens; SW480, Colon; MTT at 24 hours; Table 3
Description: as §1, §2, §3

HCT116 cells = test: MTT cell viability, HCT116; assay type: cell-based; conditions: Homo sapiens, HCT-116; HCT116, Colon; MTT at 24 hours; Table 3
Description: as §1, §2, §3

HT29 cells = test: MTT cell viability, HT29; assay type: cell-based; conditions: Homo sapiens, HT-29; HT29, Colon; MTT at 24 hours; Table 3
Description: as §1, §2, §3

HepG2 cells = test: MTT cell viability, HepG2; assay type: cell-based; conditions: Homo sapiens; HepG2, Liver; MTT at 24 hours; Table 3
Description: as §1, §2, §3

Paca2 cells = test: MTT cell viability, Paca2; assay type: cell-based; conditions: PaCa-2; Paca2, Pancreas; MTT at 24 hours; Table 3
Description: as §1, §2, §3

Panc1 cells = test: MTT cell viability, Panc1; assay type: cell-based; conditions: Homo sapiens, PANC-1; Panc1, Pancreas; MTT at 24 hours; Table 3
Description: as §1, §2, §3

PC3 cells = test: MTT cell viability, PC3; assay type: cell-based; conditions: Homo sapiens, PC-3; PC3, Prostate; MTT at 24 hours; Table 3
Description: as §1, §2, §3

LNCap cells = test: MTT cell viability, LNCap; assay type: cell-based; conditions: Homo sapiens, Prostate, MTT at 24 hours, Table 3
Description: as §1, §2, §3

FaDu cells = test: MTT cell viability, FaDu; assay type: cell-based; conditions: Homo sapiens, MTT at 24 hours
Description: as §1, §2, §3

[2] = system: Stat3 transcription activity; test: Stat3-luciferase (Stat3-Luc) reporter assay in HeLa cells, OSM stimulated; assay type: cell-based; conditions: Homo sapiens, compound 30 minutes before 25 ng/ml oncostatin M, 6 hours, read-out: IC50 in Stat3-Luc assays
Protocol: Luciferase Reporter Assay: HeLa Cells were co-transfected with Stat3-luciferase (Stat3-Luc) reporter vector (Panomics, Fremont, Calif.) and Renilla luciferase (Promega, Madison, Wis.) using Lipofectamine 2000 as described by the manufacturer (Invitrogen). Following transfection, cells were maintained in medium containing 0.5% FBS for 24 hours. Cells were then treated with the indicated compound for 30 minutes prior to the addition of 25 ng/ml oncostatin M (OSM) (R&D Systems, Minneapolis, Minn.) to the medium. 6 hours following OSM addition, cells were harvested and levels of firefly and renilla luciferase were measured using the Dual-Glo Luciferase Assay System as described by the manufacturer (Promega).
Inhibition of Stat3 transcription activity. Compounds were tested for their ability to inhibit Stat3 transcription activation activity in cells using a Stat3-luciferase (Stat3-luc) reporter construct. Cells transfected with Stat3-luc were cultured in reduced serum medium prior to addition of indicated compound for 30 minutes. Cells were then stimulated with 25 ng/ml oncostatin (OSM) for 6 hours followed by detection of Stat3-luc reporter activity.

[3] = Hela, Table 4, read-out: IC50 (μM) Hela
[4] = DU145, Table 4, read-out: IC50 (μM) DU145
[5] = H1299, Table 4, read-out: IC50 (μM) H1299
[6] = H1299, Lung, Table 3, read-out: IC50
[7] = HeLa, Cervix, Table 3, read-out: IC50
[8] = DU145, Prostate, Table 3, read-out: IC50
[9] = Table 4, read-out: IC50 (μM) FaDu

T1 sequence (P40763 whole entry): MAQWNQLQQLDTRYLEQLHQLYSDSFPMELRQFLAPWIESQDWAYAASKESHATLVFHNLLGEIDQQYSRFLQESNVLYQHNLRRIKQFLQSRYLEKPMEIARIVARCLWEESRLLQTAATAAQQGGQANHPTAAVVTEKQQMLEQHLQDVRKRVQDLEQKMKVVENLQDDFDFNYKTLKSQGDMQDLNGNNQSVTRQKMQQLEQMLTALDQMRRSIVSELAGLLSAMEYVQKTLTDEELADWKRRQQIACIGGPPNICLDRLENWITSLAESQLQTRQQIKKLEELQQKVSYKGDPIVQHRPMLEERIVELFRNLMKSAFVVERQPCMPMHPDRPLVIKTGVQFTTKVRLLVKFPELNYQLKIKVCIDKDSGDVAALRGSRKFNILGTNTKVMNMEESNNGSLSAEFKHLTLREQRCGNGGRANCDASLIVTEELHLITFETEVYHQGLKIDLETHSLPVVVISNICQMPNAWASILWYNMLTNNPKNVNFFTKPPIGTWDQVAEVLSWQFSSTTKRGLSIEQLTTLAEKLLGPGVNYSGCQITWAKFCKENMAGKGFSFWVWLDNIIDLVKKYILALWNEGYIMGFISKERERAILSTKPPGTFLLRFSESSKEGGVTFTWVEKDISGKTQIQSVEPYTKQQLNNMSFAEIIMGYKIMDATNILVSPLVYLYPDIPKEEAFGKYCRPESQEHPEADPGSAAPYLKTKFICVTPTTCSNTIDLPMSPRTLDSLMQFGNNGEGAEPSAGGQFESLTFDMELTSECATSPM

Structure (SMILES)	IC50 (HeLa cells; [3])	IC50 (DU145 cells; [4])	inhibition % 1 × MTT IC50 [1]	inhibition % 3 × MTT IC50 [1]	IC50 (CD44^high FaDu cells)	IC50 (CD44^low FaDu cells)	IC50 (H1299 cells; [5])	IC50 (SW480 Hoechst SP cells)	IC50 (SW480 NSP cells)	IC50 (A549 cells)	IC50 (H1299 cells; [6])	IC50 (MCF7 cells)	IC50 (HeLa cells; [7])	IC50 (DLD1 cells)	IC50 (SW480 cells)	IC50 (HCT116 cells)	IC50 (HT29 cells)	IC50 (Paca2 cells)	IC50 (Panc1 cells)	IC50 (DU145 cells; [8])	also measured
C=Cc1cc2c(o1)C(=O)c1cc(F)ccc1C2=O [Compound 202]	4.56 µM	2.65 µM	50%	46%	2.4 µM	2.25 µM	–	–	–	–	–	–	–	–	–	–	–	–	–	–	–
O=C1c2ccccc2C(=O)c2oc(C(O)c3ccccc3)cc21 (centres unmarked) [Compound 302]	7.8 µM	4.9 µM	6%	25%	0.68 µM	3.68 µM	7.2 µM	2.06 µM	1.29 µM	–	–	–	–	–	–	–	–	–	–	–	–
CC(O)c1cc2c(o1)C(=O)c1cc(F)ccc1C2=O (centres unmarked) [Compound 304]	1.67 µM	1.84 µM	25%	55%	2.41 µM	2.49 µM	–	–	–	–	–	–	–	–	–	–	–	–	–	–	–
CC(=O)c1cc2c(o1)C(=O)c1ccccc1C2=O [Compound 401]	0.428 µM	0.116 µM	–	–	–	–	0.234 µM	0.34 µM	0.33 µM	950 nM	0.23 µM	460 nM	0.43 µM	330 nM	320 nM	580 nM	1270 nM	110 nM	1700 nM	0.12 µM	IC50 (HepG2 cells): 250 nM; IC50 (PC3 cells): 2370 nM; IC50 (LNCap cells): 630 nM; IC50 (FaDu cells; Head and Neck, Table 3, read-out: IC50): 0.39 µM; IC50 (FaDu cells; [9]): 0.39 µM; inhibition of Stat3 DNA binding (in words) ([1]; HeLa nuclear extract, FIG. 6A/6B): Dose dependent inhibition of Stat3 DNA binding; also recorded: inhibits Stat3 DNA-binding activity
O=C(c1ccccc1)c1cc2c(o1)C(=O)c1ccccc1C2=O [Compound 412]	1.69 µM	0.327 µM	–	–	–	–	0.524 µM	–	–	3160 nM	0.52 µM	1150 nM	1.69 µM	1110 nM	1310 nM	2020 nM	4640 nM	640 nM	3690 nM	0.33 µM	IC50 (PC3 cells): 4450 nM; IC50 [2]: ~750 nM
CC(=O)c1cc2c(o1)C(=O)c1cc(F)ccc1C2=O [Compound 418]	0.488 µM	0.164 µM	39%	63%	–	–	0.317 µM	0.34 µM	0.33 µM	1060 nM	0.34 µM	460 nM	0.8 µM	640 nM	760 nM	610 nM	1830 nM	210 nM	1540 nM	0.18 µM	IC50 (PC3 cells): 3040 nM
CC(=O)c1oc2c(c1CBr)C(=O)c1ccccc1C2=O [Compound 420]	–	–	47%	63%	–	–	–	0.59 µM	0.51 µM	–	–	–	–	–	–	–	–	–	–	–	IC50 (FaDu cells; [9]): 3.5 µM
